Measured values published in patent US9708279B2, “2-acylaminothiazoles for the treatment of cancer” (UNIVERSITA′ DEGLI STUDI DI MILANO-BICOCCA, priority 2013, dated 2017).
Read-outs that look alike come from different tables or passages of the source.

Assays:
[1] = system: parental untransformed BaF3 cells; assay: Tritiated thymidine uptake cell proliferation assay, parental BaF3; assay type: cell-based; conditions: Mus musculus
Experimental: (§1) Tritiated Thymidine Uptake Cell Proliferation Assay
The parent untransformed BaF3 cells and ALK-negative cells are used as controls. Cells are seeded in U-bottomed 96-well plates at 10 000 cells/well in a volume of 100 μL in supplemented medium. In the case of the parent untransformed BaF3 cells, the medium is supplemented with IL-3. Serial dilutions of inhibitors are added to the appropriate wells and volumes adjusted to 200 μL. Controls were treated with the equivalent volume of vehicle, DMSO, alone. Plates are incubated at 37° C. for 72 h. ^3[H]-thymidine (1 μCiCi/well) is added for the last 8 h of incubation. Cells are harvested on to paper filters and ^3[H]-thymidine incorporation is measured using a β scintillation counter (1430 MicroBeta, Wallac, Turku, Finland). The 50% inhibitory concentration (IC50) is defined as the concentration of inhibitor, expressed in micromolar, that give a 50% decrease in ^3[H]-thymidine uptake compared with controls.

[2] = target: recombinant wild-type ALK kinase (rALK) (Homo sapiens (Human), UniProt Q9UM73); assay: ELISA-based in vitro kinase assay, wild-type ALK; assay type: biochemical; conditions: 0.3 mM ATP, read-out: ALK WT IC50
Sequence of recombinant wild-type ALK kinase (rALK) (Q9UM73 19-1620): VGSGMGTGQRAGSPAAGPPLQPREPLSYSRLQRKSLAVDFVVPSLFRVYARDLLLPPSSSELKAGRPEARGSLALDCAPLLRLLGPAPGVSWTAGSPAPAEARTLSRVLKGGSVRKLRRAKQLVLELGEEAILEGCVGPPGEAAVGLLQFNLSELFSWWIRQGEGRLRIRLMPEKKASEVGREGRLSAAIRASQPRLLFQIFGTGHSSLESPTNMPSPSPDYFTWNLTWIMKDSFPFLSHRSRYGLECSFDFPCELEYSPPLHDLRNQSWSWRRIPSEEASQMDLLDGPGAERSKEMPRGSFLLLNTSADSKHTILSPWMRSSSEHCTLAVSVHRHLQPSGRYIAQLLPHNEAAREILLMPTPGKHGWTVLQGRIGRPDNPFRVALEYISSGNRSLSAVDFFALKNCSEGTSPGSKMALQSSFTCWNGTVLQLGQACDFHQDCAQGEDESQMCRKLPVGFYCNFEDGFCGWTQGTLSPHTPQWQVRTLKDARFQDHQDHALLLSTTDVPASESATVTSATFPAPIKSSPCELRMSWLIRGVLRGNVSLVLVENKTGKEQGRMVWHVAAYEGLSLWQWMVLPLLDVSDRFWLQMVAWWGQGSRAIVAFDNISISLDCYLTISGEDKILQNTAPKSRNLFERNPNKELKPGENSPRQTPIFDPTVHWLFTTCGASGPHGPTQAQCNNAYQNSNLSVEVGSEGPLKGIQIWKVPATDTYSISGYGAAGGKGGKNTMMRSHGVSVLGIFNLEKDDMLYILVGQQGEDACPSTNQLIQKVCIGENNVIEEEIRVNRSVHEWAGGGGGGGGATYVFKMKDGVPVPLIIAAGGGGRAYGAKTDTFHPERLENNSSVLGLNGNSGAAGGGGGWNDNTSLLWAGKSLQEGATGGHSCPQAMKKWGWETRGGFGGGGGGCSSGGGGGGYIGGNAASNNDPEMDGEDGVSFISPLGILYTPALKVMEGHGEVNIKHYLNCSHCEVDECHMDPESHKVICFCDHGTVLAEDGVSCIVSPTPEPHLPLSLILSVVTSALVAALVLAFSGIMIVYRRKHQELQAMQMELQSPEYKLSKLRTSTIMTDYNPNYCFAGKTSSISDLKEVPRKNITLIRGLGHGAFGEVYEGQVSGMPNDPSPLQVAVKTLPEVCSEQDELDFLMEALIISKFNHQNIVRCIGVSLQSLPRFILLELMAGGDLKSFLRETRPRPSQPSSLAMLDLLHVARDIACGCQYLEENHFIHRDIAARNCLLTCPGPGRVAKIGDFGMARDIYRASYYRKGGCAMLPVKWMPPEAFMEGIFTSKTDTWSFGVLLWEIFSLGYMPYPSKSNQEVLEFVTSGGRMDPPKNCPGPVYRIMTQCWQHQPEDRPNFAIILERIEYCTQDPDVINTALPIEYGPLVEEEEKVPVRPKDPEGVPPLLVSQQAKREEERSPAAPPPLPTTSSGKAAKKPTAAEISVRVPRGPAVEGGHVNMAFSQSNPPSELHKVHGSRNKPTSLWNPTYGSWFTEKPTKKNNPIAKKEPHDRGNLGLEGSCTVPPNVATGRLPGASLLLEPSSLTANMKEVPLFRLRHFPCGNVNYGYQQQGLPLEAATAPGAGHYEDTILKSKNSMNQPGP
Experimental: ELISA-Based in vitro Kinase Assay
GST-tagged recombinant wild-type or L1196M mutated ALK kinase (rALK) was expressed in Sf9 insect cells using the pBacPAK baculovirus vector system (Clontech) and purified using Glutathione Sepharose 4B affinity beads (GE Healthcare). Recombinant 3C protease was used to remove the GST tag. Purified ALK was used to screen inhibitors in the ELISA-based kinase assay, as follows: Nunc-Immuno 96-well plates were incubated overnight at 30° C. with coating solution containing 2 μg of a specific ALK peptide substrate ([sequence]) in PBS. Wells were then washed with 200 μL of wash buffer (PBS-Tween 0.05%) and incubated with 4% BSA in PBS for at least 2 h at 30° C. The kinase reaction was performed in the presence of 50 mM Tris pH 7.5, 5 mM MnCl2, 5 mM MgCl2, 0.3 mM ATP and purified rALK in a total volume of 100 μL/well at 30° C. for 15 min. For inhibitor testing the reaction mix was preincubated with inhibitor or vehicle for 10 min at room temperature before transferring to the ELISA plate. After the reaction, the wells were washed 5 times with 200 uL of wash buffer. Phosphorylated peptide was detected using 100 μL/well of a mouse monoclonal anti-phosphotyrosine antibody (clone 4G10 UpstateBiotech Ltd) diluted 1:2000 in PBS+4% BSA. After 30 min incubation at room temperature the antibody was removed and wells were washed as described above. 100 μL of a secondary antibody (anti-mouse IgG, Horseradish Peroxidase linked whole antibody, Amersham Pharmacia Biotech) diluted 1:1000 in PBS+4% BSA was added to each well and the plate was incubated again for 30 min at room temperature before washing as above. The plate was developed using 100 μL/well TMB Substrate Solution (Pierce) and the reaction was stopped by adding an equal volume of 1M H2SO4. Finally, the absorbance was read at 450 nm using an ELISA plate reader (Bio-Rad).

[3] = system: BaF3 cells transformed with the oncogenic fusion protein NPM/ALK; assay: Tritiated thymidine uptake cell proliferation assay, BaF3 NPM/ALK; assay type: cell-based; conditions: for IC50: BaF3 NPM/ALK cells, 72 h, 3H-thymidine uptake, read-out: NPM/ALK WT IC50; for Selectivity Index (WT): parental BaF3 versus BaF3 NPM/ALK WT
Experimental: as §1
The parent untransformed BaF3 cells and ALK-negative cells are used as controls. Cells are seeded in U-bottomed 96-well plates at 10 000 cells/well in a volume of 100 μL in supplemented medium. In the case of the parent untransformed BaF3 cells, the medium is supplemented with IL-3. Serial dilutions of inhibitors are added to the appropriate wells and volumes adjusted to 200 μL. Controls were treated with the equivalent volume of vehicle, DMSO, alone. Plates are incubated at 37° C. for 72 h. ^3[H]-thymidine (1 μCiCi/well) is added for the last 8 h of incubation.

[4] = parental BaF3 cells (IL-3), 72 h, 3H-thymidine uptake, read-out: Parental IC50

Q: With `COc1ccc(C#Cc2cc(-c3csc(NC(=O)c4ccc(CN5CCN(C)CC5)cc4)n3)ccc2C)cc1` [Example 6, N-(4-(3-((4-methoxyphenyl)ethynyl)-4-methylphenyl)thiazol-2-yl)-4-((4-methylpiperazin-1-yl)methyl)benzamide] as the compound, how does the IC50 [1, 4] read?
A: 6.6 µM

Q: What about the IC50 [2] of the same compound?
A: > 100 µM

Q: And the IC50 [3]?
A: 2.1 µM

Q: And the “Selectivity Index (WT)” value [3]?
A: 3

Q: Which IC50 [1, 4] does the source give for `Cc1ccc(-c2csc(NC(=O)c3ccc(CN4CCN(C)CC4)cc3)n2)cc1C#Cc1ccc(F)cc1` [Example 9, N-(4-(3-((4-fluorophenyl)ethynyl)-4-methylphenyl)thiazol-2-yl)-4-((4-methylpiperazin-1-yl)methyl)benzamide] here?
A: 4 µM

Q: And the IC50 [2]?
A: > 100 µM

Q: And the IC50 [3]?
A: 2.3 µM

Q: What about the “Selectivity Index (WT)” value [3] of the same compound?
A: 2

Q: How did the IC50 ([1]; BaF3, read-out: Parental IC50) turn out when `CN1CCN(Cc2ccc(C(=O)Nc3nc(-c4cccc(C#Cc5cc(C(F)(F)F)cc(C(F)(F)F)c5)c4)cs3)cc2)CC1` [Example 33, N-(4-(3-((3,5-bis(trifluoromethyl)phenyl)ethynyl)phenyl)thiazol-2-yl)-4-((4-methylpiperazin-1-yl)methyl)benzamide] was run?
A: 7.1 µM

Q: For `CN1CCN(C(=O)c2ccc(-c3ccc(C(=O)Nc4nc(-c5cccc(C#Cc6cc(C(F)(F)F)cc(C(F)(F)F)c6)c5)cs4)o3)cc2)CC1` [Example 34, N-(4-(3-((3,5-bis(trifluoromethyl)phenyl)ethynyl)phenyl)thiazol-2-yl)-5-(4-(4-methylpiperazine-1-carbonyl)phenyl)furan-2-carboxamide], which IC50 [1, 4] is on record?
A: 4 µM

Q: And the IC50 [2]?
A: > 100 µM

Q: And the IC50 [3]?
A: 1.9 µM

Q: What about the “Selectivity Index (WT)” value [3] of the same compound?
A: 2

Q: Which IC50 ([1]; BaF3, read-out: Parental IC50) does the source give for `CC(C)[Si](C#Cc1ccc(-c2csc(NC(=O)c3ccc(CN4CCN(C)CC4)cc3)n2)cc1)(C(C)C)C(C)C` [Example 35, 4-((4-methylpiperazin-1-yl)methyl)-N-(4-(4-((triisopropylsilyl)ethynyl)phenyl)thiazol-2-yl)benzamide] here?
A: 7.3 µM

Q: How did the IC50 ([1]; BaF3, read-out: Parental IC50) turn out when `CN1CCN(Cc2ccc(C(=O)Nc3nc(-c4ccc(C#Cc5cc(C(F)(F)F)cc(C(F)(F)F)c5)cc4)cs3)cc2)CC1` [Example 36, N-(4-(4-((3,5-bis(trifluoromethyl)phenyl)ethynyl)phenyl)thiazol-2-yl)-4-((4-methylpiperazin-1-yl)methyl)benzamide] was run?
A: 6.9 µM

Q: Which IC50 ([1]; BaF3, read-out: Parental IC50) does the source give for `CN1CCN(Cc2ccc(C(=O)Nc3nc(-c4ccc(C#C[Si](C)(C)C(C)(C)C)cc4)cs3)cc2)CC1` [Example 37, N-(4-(4-((tert-butyldimethylsilyl)ethynyl)phenyl)thiazol-2-yl)-4-((4-methylpiperazin-1-yl)methyl)benzamide] here?
A: 2.4 µM

Q: `CC(C)[Si](C#Cc1cccc(-c2csc(NC(=O)c3ccc(CN4CCOCC4)cc3)n2)c1)(C(C)C)C(C)C` [Example 38, 4-(morpholinomethyl)-N-(4-(3-((triisopropylsilyl)ethynyl)phenyl)thiazol-2-yl)benzamide] was tested. Which IC50 ([1]; BaF3, read-out: Parental IC50) did it give?
A: > 50 µM

Q: Which IC50 [1, 4] does the source give for `O=C(Nc1nc(-c2cccc(C#Cc3cc(C(F)(F)F)cc(C(F)(F)F)c3)c2)cs1)c1ccc(CN2CCOCC2)cc1` [Example 39, N-(4-(3-((3,5-bis(trifluoromethyl)phenyl)ethynyl)phenyl)thiazol-2-yl)-4-(morpholinomethyl)benzamide] here?
A: 33 µM

Q: And the IC50 [2]?
A: > 100 µM

Q: And the IC50 [3]?
A: 9 µM

Q: What about the “Selectivity Index (WT)” value [3] of the same compound?
A: 4

Q: `CC(C)(C)[Si](C)(C)C#Cc1cccc(-c2csc(NC(=O)c3ccc(CN4CCOCC4)cc3)n2)c1` [Example 40, N-(4-(3-((tert-butyldimethylsilyl)ethynyl)phenyl)thiazol-2-yl)-4-(morpholinomethyl)benzamide] was tested. Which IC50 ([1]; BaF3, read-out: Parental IC50) did it give?
A: 18 µM

Q: Which IC50 ([1]; BaF3, read-out: Parental IC50) does the source give for `CC(C)(C)[Si](C#Cc1cccc(-c2csc(NC(=O)c3ccc(CN4CCOCC4)cc3)n2)c1)(c1ccccc1)c1ccccc1` [Example 41, N-(4-(3-((tert-butyldiphenylsilyl)ethynyl)phenyl)thiazol-2-yl)-4-(morpholinomethyl)benzamide] here?
A: > 50 µM

Q: `CN1CCN(Cc2ccc(C(=O)Nc3nc(-c4cccc(C#Cc5ccccc5OC(F)(F)F)c4)cs3)cc2)CC1` [Example 42, 4-((4-methylpiperazin-1-yl)methyl)-N-(4-(3-((2-(trifluoromethoxy)phenyl)ethynyl)phenyl)thiazol-2-yl)benzamide] was tested. Which IC50 ([1]; BaF3, read-out: Parental IC50) did it give?
A: 2.6 µM

Q: For `CN1CCN(C(=O)c2ccc(-c3ccc(C(=O)Nc4nc(-c5cccc(C#Cc6ccccc6OC(F)(F)F)c5)cs4)o3)cc2)CC1` [Example 43, 5-(4-(4-methylpiperazine-1-carbonyl)phenyl)-N-(4-(3-((2-(trifluoromethoxy)phenyl)ethynyl)phenyl)thiazol-2-yl)furan-2-carboxamide], which IC50 [1, 4] is on record?
A: 4.5 µM

Q: What about the IC50 [2] of the same compound?
A: > 100 µM

Q: What about the IC50 [3] of the same compound?
A: 4.9 µM

Q: And the “Selectivity Index (WT)” value [3]?
A: 1

Q: `CC(C)[Si](C#Cc1cccc(-c2csc(NC(=O)c3ccc(CNCCN(C)C)cc3)n2)c1)(C(C)C)C(C)C` [Example 44, 4-(((2-(dimethylamino)ethyl)amino)methyl)-N-(4-(3-((triisopropylsilyl)ethynyl)phenyl)thiazol-2-yl)benzamide] was tested. Which IC50 [1, 4] did it give?
A: 7.8 µM

Q: And the IC50 [2]?
A: > 100 µM

Q: And the IC50 [3]?
A: 5.1 µM

Q: How did the IC50 ([1]; BaF3, read-out: Parental IC50) turn out when `CC(C)[Si](C#Cc1cccc(-c2csc(NC(=O)c3ccc(Cn4cnnn4)cc3)n2)c1)(C(C)C)C(C)C` [Example 45] was run?
A: 8 µM

Q: For `CC(C)[Si](C#Cc1cccc(-c2csc(NC(=O)c3ccc(Cn4ccnc4)cc3)n2)c1)(C(C)C)C(C)C` [Example 46, 4-((1H-imidazol-1-yl)methyl)-N-(4-(3-((triisopropylsilyl)ethynyl)phenyl)thiazol-2-yl)benzamide], which IC50 ([1]; BaF3, read-out: Parental IC50) is on record?
A: 11 µM

Q: With `CC(C)OC(=O)CNCc1ccc(C(=O)Nc2nc(-c3cccc(C#C[Si](C(C)C)(C(C)C)C(C)C)c3)cs2)cc1` [Example 47, isopropyl 2-((4-((4-(3-((triisopropylsilyl)ethynyl)phenyl)thiazol-2-yl)carbamoyl)benzyl)amino)acetate] as the compound, how does the IC50 ([1]; BaF3, read-out: Parental IC50) read?
A: > 25 µM

Q: `CC(C)[Si](C#Cc1cccc(-c2csc(NC(=O)c3ccc(CN4CCN(C)CC4)cc3)n2)c1)(C(C)C)C(C)C` [Example 48, 4-((4-methylpiperazin-1-yl)methyl)-N-(4-(3-((triisopropylsilyl)ethynyl)phenyl)thiazol-2-yl)benzamide] was tested. Which IC50 ([1]; BaF3, read-out: Parental IC50) did it give?
A: 13 µM

Q: With `C#Cc1cccc(-c2csc(NC(=O)c3ccc(CN4CCN(C)CC4)cc3)n2)c1` [Example 49, N-(4-(3-ethynylphenyl)thiazol-2-yl)-4-((4-methylpiperazin-1-yl)methyl)benzamide] as the compound, how does the IC50 ([1]; BaF3, read-out: Parental IC50) read?
A: 4 µM

Q: For `C#CCN1CCN(Cc2ccc(C(=O)Nc3nc(-c4cccc(C#C[Si](C(C)C)(C(C)C)C(C)C)c4)cs3)cc2)CC1` [Example 50, 4-((4-(prop-2-yn-1-yl)piperazin-1-yl)methyl)-N-(4-(3-((triisopropylsilyl)ethynyl)phenyl)thiazol-2-yl)benzamide], which IC50 ([1]; BaF3, read-out: Parental IC50) is on record?
A: > 50 µM
